Here are results for 10 compounds from article PMC8064294 (Journal of medicinal chemistry, 2020).

The target of series [1] is T1, ULK1 (NanoLuc-ULK1 fusion) (Homo sapiens, UniProt O75385).
T1 sequence (O75385 1-1050): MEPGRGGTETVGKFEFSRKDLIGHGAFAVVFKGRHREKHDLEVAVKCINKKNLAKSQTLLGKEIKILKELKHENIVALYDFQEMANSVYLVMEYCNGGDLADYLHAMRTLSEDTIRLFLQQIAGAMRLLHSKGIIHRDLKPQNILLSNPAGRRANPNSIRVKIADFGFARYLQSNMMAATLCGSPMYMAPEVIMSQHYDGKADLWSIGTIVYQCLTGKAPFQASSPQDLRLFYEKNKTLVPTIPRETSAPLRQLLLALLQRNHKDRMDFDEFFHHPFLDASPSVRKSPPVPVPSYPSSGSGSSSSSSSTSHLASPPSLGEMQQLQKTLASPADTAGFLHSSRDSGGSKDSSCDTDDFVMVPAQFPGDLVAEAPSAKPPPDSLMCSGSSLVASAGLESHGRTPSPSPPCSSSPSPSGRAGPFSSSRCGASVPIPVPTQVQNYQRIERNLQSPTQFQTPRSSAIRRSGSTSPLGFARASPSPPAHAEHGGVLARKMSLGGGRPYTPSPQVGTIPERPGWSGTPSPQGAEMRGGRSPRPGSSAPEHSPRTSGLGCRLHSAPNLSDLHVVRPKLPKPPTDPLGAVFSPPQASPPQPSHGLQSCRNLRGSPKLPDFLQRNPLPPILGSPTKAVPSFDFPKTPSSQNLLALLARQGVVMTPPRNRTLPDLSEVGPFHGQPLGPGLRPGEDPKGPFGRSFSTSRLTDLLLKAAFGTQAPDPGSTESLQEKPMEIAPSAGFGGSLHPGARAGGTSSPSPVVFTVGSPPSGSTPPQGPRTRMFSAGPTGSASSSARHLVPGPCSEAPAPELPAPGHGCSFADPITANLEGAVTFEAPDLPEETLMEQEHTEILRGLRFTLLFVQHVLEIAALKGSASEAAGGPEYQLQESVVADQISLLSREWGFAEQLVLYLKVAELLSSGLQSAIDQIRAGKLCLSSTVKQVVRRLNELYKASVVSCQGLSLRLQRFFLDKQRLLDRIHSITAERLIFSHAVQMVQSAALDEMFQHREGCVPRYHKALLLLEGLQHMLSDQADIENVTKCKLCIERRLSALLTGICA
Briefly: ULK1 NanoBRET intracellular kinase target engagement assay in HEK293T cells. It counts as cell-based. To be noted: HEK293T live cells.

The target of series [2] is T2, recombinant human ULK1 protein (1-649) (Homo sapiens, UniProt O75385).
T2 sequence (O75385 1-649): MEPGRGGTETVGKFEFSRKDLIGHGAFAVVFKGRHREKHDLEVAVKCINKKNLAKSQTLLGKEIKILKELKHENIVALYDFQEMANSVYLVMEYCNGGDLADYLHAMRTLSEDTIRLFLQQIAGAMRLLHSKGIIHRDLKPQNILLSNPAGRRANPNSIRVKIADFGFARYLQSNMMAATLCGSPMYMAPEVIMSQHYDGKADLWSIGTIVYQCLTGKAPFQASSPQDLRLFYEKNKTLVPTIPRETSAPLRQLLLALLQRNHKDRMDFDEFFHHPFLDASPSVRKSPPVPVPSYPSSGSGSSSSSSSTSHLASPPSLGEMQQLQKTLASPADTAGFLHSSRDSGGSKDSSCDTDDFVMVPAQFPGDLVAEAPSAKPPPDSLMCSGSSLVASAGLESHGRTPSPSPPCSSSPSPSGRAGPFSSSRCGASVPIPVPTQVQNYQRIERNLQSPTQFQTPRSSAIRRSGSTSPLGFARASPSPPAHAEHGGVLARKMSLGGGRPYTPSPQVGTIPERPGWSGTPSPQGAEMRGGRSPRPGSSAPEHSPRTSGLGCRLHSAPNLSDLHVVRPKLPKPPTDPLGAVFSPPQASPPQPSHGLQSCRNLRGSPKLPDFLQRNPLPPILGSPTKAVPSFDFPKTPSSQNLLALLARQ
Briefly: ULK1 ADP-Glo kinase assay. It counts as biochemical. To be noted: for ULK1 ADP-Glo potency compared with compound 3: in words. For orientation: ADP-Glo turns the ADP formed in a reaction into a luminescent signal.

A short description of series [3]: Kinetic solubility. It counts as physicochemical.
The conditions of series [4]: mice, stated as noted previously, no data shown, cited from earlier work.
The subject of series [5] is autophagic flux in MDA-MB-468 cells expressing mCherry-EGFP-LC3. The series can be described thus: mCherry-GFP-LC3 FACS autophagic flux assay. Format: cell-based, human. To be noted: 48 h.
The nature of series [6]: PK study in mice, plasma concentration by LC-MS/MS. To be noted: single oral dose 30 mg/kg.
In series [7] the test system is MDA-MB-468 cells. The series can be described thus: Combination dose-response matrix with PARP inhibitors, Combenefit Loewe model. It counts as cell-based, human. To be noted: combination with niraparib; synergy at 26 0.19–1.7 μM and niraparib 3.8–7.5 μM.
The subject of series [8] is autophagosomes in MDA-MB-468 cells. The series can be described thus: TEM imaging of autophagosomes. Format: cell-based, human. To be noted: EBSS starved cells, 10 μM.
In series [9] the test system is pATG13 (Ser318), ATG13 and ULK1 in liver lysates. Briefly: PD study, in vivo target engagement in mouse liver. To be noted: mice, 10 mg/kg oral gavage, 2 h post dosing.

On to `Nc1ccc(Nc2ncc(C(F)(F)F)c(NC3CC3)n2)cc1` [compound 23, N^2-(4-Aminophenyl)-N^4-cyclopropyl-5-(trifluoro-methyl)-pyrimidine-2,4-diamine], for which the “ULK1 NanoBRET IC50 (range in words)” value in [1] is “sub-micromolar range”. With `FC(F)(F)c1cnc(Nc2cnc3[nH]ccc3c2)nc1NC1CC1` [compound 11, N^4-Cyclopropyl-N^2-(1H-pyrrolo[2,3-b]pyridin-5-yl)-5-(trifluoromethyl)pyrimidine-2,4-diamine], the “ULK1 ADP-Glo potency compared with compound 3” value in [2] is “approximately equipotent with 3”. Moreover, the “solubility in PBS (in words)” value in series [3] is “limited solubility”. As to `CNC(=O)c1ccccc1Oc1nc(Nc2cc(OC)c(OC)c(OC)c2)ncc1Br` [compound 1], the systemic exposure result in series [4] (ip dosing) is on record as “poor systemic exposure”. For the same compound, the oral bioavailability entry in [4] is “no measurable oral bioavailability”. In the case of `FC(F)(F)c1cnc(Nc2ccc3ncoc3c2)nc1NC1CC1` [compound 15, N^2-(Benzo[d]oxazol-6-yl)-N^4-cyclopropyl-5-(trifluoromethyl)pyrimidine-2,4-diamine], the “ULK1 ADP-Glo potency compared with compound 3” value in [2] is reported as “approximately equipotent with 3”.

As to `FC(F)(F)c1cnc(Nc2ccc3[nH]ccc3c2)nc1NC1CC1` [compound 8, N^4-Cyclopropyl-N^2-(1H-indol-5-yl)-5-(trifluoromethyl)-pyrimidine-2,4-diamine], in [2], the “ULK1 ADP-Glo potency compared with compound 3” value is recorded as “approximately equipotent with 3”. `O=C1CCCc2cc(Nc3ncc(C(F)(F)F)c(NC4CC4)n3)ccc21` [compound 19, 6-((4-(Cyclopropylamino)-5-(trifluoromethyl)pyrimidin-2-yl)amino)-3,4-dihydronaphthalen-1(2H)-one]: the “solubility in PBS (in words)” value in [3] is “limited solubility”. Consider `COc1ccc(Nc2ncc(C(F)(F)F)c(NC3CC3)n2)cc1OC` [compound 26, N^4-Cyclopropyl-N^2-(3,4-dimethoxyphenyl)-5-(trifluoromethyl)pyrimidine-2,4-diamine], for which, in series [1], the “ULK1 NanoBRET IC50 (range in words)” value was “sub-micromolar range”. Moreover, the “effect on olaparib-induced increase in autophagic flux” value in series [5] (10 μM with olaparib 30 μM) is given as “significantly suppressed the olaparib-induced increase in autophagic flux to a level similar to that observed in untreated control cells”. Besides, the “Cmax relative to ULK1 NanoBRET IC50” value in series [6] was “about 3 fold”. In addition, in [7], the “maximum synergy score (Loewe)” value was 26. The “number of autophagosomes by TEM” value in [8] is recorded as “decreased the number of autophagosomes to a greater extent than SBI-0206965”. Moreover, in series [9], the “effect on pATG13 (Ser318) in liver” value was “robust inhibition of pATG13 (Ser318)”; the “effect on total ATG13 and ULK1 levels in liver” value is “downregulation of total ATG13 and ULK1 levels”. `O=C(c1cc(Cc2n[nH]c(=O)c3ccccc23)ccc1F)N1CCN(C(=O)C2CC2)CC1` [olaparib, reference compound]: the “increase in autophagic flux compared with control cells” value in series [5] (30 μM) is listed as “approximately 30%”. Take `FC(F)(F)c1cnc(Nc2ccc3nn[nH]c3c2)nc1NC1CC1` [compound 10, N^2-(1 H-Benzo[d][1,2,3]triazol-6-yl)-N^4-cyclopropyl-5-(trifluoromethyl)pyrimidine-2,4-diamine]: the “fold more potent than compound 3 in ULK1 ADP-Glo” value in series [2] was “about 4 fold”. As to `FC(F)(F)c1cnc(Nc2ccc3ncccc3c2)nc1NC1CC1` [compound 16, N^4-Cyclopropyl-N^2-(quinolin-6-yl)-5-(trifluoromethyl)-pyrimidine-2,4-diamine], the “ULK1 NanoBRET IC50 (range in words)” value in series [1] is listed as “sub-micromolar range”.
